Publication PMC2698131 (Journal of biomolecular screening, 2009)
Where two headings read alike, the source gives them in different places.

Assays:
[1] = target: T1, LARG-stimulated RhoA nucleotide binding (Homo sapiens, UniProt Q9NZN5); type: biochemical; settings: 20 minutes; for Hill Slope [TR-GTPγS]: BODIPY-TR-GTPγS fluorescence polarization dose-response; for IC50: BODIPY-TR-GTPγS 500 nM, LARG 100 nM, RhoA (C189S) 2 μM
T1 sequence (Q9NZN5 765-1138): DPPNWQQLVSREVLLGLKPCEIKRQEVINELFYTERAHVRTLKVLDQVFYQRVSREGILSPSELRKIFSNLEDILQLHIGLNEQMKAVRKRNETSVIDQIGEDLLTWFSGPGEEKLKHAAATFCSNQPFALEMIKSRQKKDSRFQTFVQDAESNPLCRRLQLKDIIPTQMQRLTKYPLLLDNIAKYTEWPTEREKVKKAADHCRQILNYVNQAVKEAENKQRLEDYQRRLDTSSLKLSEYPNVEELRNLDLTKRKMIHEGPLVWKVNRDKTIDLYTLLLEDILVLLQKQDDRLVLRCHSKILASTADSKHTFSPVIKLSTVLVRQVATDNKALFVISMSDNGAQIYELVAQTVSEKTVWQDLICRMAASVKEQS

[2] = target: T2, LARG-stimulated RhoA [35S] GTPγS binding (Homo sapiens, UniProt Q9NZN5); assay: LARG-stimulated RhoA [35S] GTPγS guanine nucleotide binding assay; type: biochemical; settings: LARG 2 nM, RhoA (C189S) 500 nM, 25 minute time point
T2 sequence (Q9NZN5 765-1138): T1 sequence (Q9NZN5 765-1138)

Row | SMILES | Hill Slope [TR-GTPγS] [1] | IC50 ([1]; IC50 (μM) [TR-GTPγS]) [µM] | Hill Slope [GTPγS35] [2] | IC50 ([2]; read-out: IC50 (μM) [GTPγS35]) [µM] | IC50 ([1]; read-out: IC50 (μM) [TR-GTPγS]) [µM] | IC50 ([2]; IC50 (μM) [GTPγS35]) [µM]
1 | Nc1ccc(O)c(-c2nc3cc(N)ccc3s2)c1 [CCG-5849, 4-amino-2-(5-amino-1,3-benzothiazol-2-yl)phenol] | -1.6 | 10.7 |  |  |  | 
2 | O=c1oc2cc(O)ccc2cc1-c1csc(-c2ccc(-c3ccccc3)cc2)n1 [CCG-7167] | -1.8 |  | -2.2 | 4.2 | 65.1 | 
3 | N=C1S/C(=C\c2ccc(-c3ccccc3[N+](=O)[O-])o2)C(=O)N1c1ccc2c(c1)OCO2 [CCG-13528, (5Z)-3-(2H-1,3-benzodioxol-5-yl)-2-imino-5-{[5-(2-nitrophenyl)furan-2-yl]methylidene}-1,3-thiazolidin-4-one] | -3.4 | 39.8 | -1.8 |  |  | 4.6
4 | Cc1cccc(NCC(=O)N/N=C\c2c(Br)cc(Br)c(O)c2Br)c1 [CCG-14113, (N′Z)-2-[(3-methylphenyl)amino]-N′-[(2,4,6-tribromo-3-hydroxyphenyl)methylidene]acetohydrazide] | -1.0 | 32.2 | -7.1 |  |  | 32.8
5 | O=C1NC(=S)NC(=O)C1=Cc1ccc(-c2ccc(S(=O)(=O)Nc3nccs3)cc2)o1 [CCG-14631, 4-{5-[(4,6-dioxo-2-sulfanylidene-1,3-diazinan-5-ylidene)methyl]furan-2-yl}-N-(1,3-thiazol-2-yl)benzene-1-sulfonamide] | -0.7 | 3.1 | -1.1 |  |  | 7
